Experimental data published in ChEMBL document CHEMBL2440085, “Identification of novel PARP-1 inhibitors by structure-based virtual screening” (Bioorg Med Chem Lett, 2013).
Activity calls are given as the source filed them. The rule behind the calls is not given here.

Columns and labels:
[1] = molecular target: T1, Poly [ADP-ribose] polymerase 1 (Homo sapiens, UniProt P09874); assay: Inhibition of PARP-1 (unknown origin) at 1 uM after 60 mins by colorimetric assay relative to control
[2] = molecular target: T1, Poly [ADP-ribose] polymerase 1; assay: Inhibition of PARP-1 (unknown origin) at 10 uM after 60 mins by colorimetric assay relative to control
[3] = molecular target: T1, Poly [ADP-ribose] polymerase 1; assay: Inhibition of PARP-1 (unknown origin) after 60 mins by colorimetric assay

T1 sequence (P09874 whole entry): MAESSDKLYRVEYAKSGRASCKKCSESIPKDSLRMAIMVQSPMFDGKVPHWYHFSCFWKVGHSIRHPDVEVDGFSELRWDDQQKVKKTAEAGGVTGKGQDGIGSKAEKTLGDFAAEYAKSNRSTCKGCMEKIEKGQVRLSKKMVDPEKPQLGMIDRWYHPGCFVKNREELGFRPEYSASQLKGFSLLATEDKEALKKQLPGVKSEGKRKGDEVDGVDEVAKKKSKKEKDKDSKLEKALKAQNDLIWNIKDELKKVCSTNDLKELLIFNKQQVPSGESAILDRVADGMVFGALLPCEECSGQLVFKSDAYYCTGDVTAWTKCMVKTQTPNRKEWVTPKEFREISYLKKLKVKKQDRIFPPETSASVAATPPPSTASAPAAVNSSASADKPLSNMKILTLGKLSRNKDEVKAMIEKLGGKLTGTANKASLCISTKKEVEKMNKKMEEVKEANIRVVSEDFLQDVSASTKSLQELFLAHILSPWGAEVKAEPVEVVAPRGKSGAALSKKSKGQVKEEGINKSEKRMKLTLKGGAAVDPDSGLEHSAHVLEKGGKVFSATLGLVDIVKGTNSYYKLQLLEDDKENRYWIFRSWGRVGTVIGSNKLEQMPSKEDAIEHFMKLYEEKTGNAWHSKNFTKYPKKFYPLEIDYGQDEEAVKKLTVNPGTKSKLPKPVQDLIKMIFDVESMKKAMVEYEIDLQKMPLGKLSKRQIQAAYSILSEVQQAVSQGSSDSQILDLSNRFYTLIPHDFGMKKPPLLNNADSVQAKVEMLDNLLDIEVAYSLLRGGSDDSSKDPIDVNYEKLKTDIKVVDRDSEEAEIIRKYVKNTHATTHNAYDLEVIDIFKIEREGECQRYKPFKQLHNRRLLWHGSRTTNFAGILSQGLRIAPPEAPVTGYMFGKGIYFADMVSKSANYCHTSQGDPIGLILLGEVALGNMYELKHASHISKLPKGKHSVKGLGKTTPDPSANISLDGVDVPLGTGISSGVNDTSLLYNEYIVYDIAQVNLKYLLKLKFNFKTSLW

Structure (SMILES) | inhibition [1] | inhibition [2] [%] | IC50 [3] [nM]
O=C(c1ccc(F)cc1)c1c2nc[nH]c(=O)c2c2ccccn12 | inactive | – | –
O=c1[nH]n(-c2ccc([N+](=O)[O-])cc2)c(=O)c2ccccc12 | inactive | – | –
Cc1ccc2cc(CCN)c(=O)[nH]c2c1C | inactive | – | –
Cc1ccc(C(=O)C2=C3NC(=O)c4ccccc4N3Cc3ccccc32)cc1 | inactive | – | –
Oc1ncnc2ccsc12 | – | 46 | –
N#Cc1c(-c2ccccc2)cn2c1[nH]c(=O)c1ccccc12 | 40% | – | 9570
O=C1Nc2ccc(S(=O)(=O)NCc3ccccn3)c3cccc1c23 | inactive | – | –
O=c1[nH]cnc2ccsc12 | – | – | 14000
O=C1Nc2ccc(S(=O)(=O)NCc3cccnc3)c3cccc1c23 | inactive | – | –
O=C1NC(=O)c2cc(NS(=O)(=O)c3cccc4cccnc34)ccc21 | inactive | – | –
O=c1[nH]cnc2sccc12 | – | < 20 | –
O=C1Nc2ccc(S(=O)(=O)Nc3ccc(Cl)cn3)c3cccc1c23 | inactive | – | –
Cc1cc(OCC(=O)Nc2ccc3c(c2)NC(=O)C(C)O3)ccc1Cl (stereo not given) | inactive | – | –
CC1Oc2ccc(NC(=O)CNC(=O)c3ccccc3)cc2NC1=O (stereo not given) | inactive | – | –
O=C1N[C@H]2Cc3ccccc3CN2c2ccccc21 | 40% | – | 1920
Oc1nc2ccccc2n2nnnc12 | inactive | – | –
CC1Oc2ccc(NC(=O)COc3ccc(F)cc3)cc2NC1=O (stereo not given) | inactive | – | –
O=C1N[C@@H]2N(Cc3ccccc3C23CCOCC3)c2ccccc21 | 40% | – | 1960
O=C(CS(=O)(=O)CC(=O)c1ccc2c(c1)NC(=O)CO2)Nc1ccccc1 | inactive | – | –

Now from value to compound:

inhibition [1] | inhibition [2] [%] | IC50 [3] [nM] | Structure (SMILES)
inactive | – | – | O=C(c1ccccc1)c1c2nc[nH]c(=O)c2c2ccccn12
inactive | – | – | CCN(CC)c1ccc(/C=N\Nc2nnc(C)c(=O)[nH]2)cc1
inactive | – | – | CCCn1c2c(c(=S)[nH]c1=O)CCC2
inactive | – | – | CC(C)(C)c1nn2c(SCC(=O)c3ccc(Cl)c(Cl)c3)nnc2[nH]c1=O
inactive | – | – | O=c1[nH]c(NCc2ccncc2)nc2c1CCC2
inactive | – | – | Cc1ccc(C(=O)CSc2nc3c(c(=O)[nH]2)CCC3)cc1
inactive | – | – | Cc1cccc(N2CCN(c3nnc(C)c(=O)[nH]3)CC2)c1C
40% | – | 720 | Cc1sc2nc(SCC(=O)N3CCN(CCO)CC3)[nH]c(=O)c2c1C
inactive | – | – | Cc1nn2nnnc2[nH]c1=O
40% | – | 2140 | O=C(CSc1nc2sc3c(c2c(=O)[nH]1)CCC3)N(CCO)CCO
inactive | – | – | O=C(O)CN1C(=O)c2ccc3c4c(ccc(c24)C1=O)C(=O)N3
